In PubChem BioAssay AID2060884 (Molecular Pharmacology Branch, DTP, NCI, 2025):
pIC50: −log10 of the molar value.

System: NCI-H929 complex spheroids, viability % test/control
Test: Anticancer human tumor NCI-H929 cell line growth inhibition [RAS];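 further: compound exposure lasted seven days before viability was read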
Conditions: for pIC50: curve of first compound; for viability, T/C: stronger effect = lower value
Description: RAS pathway inhibitors in Combinations in Complex Spheroids
A high-throughput screen of multi-cell type tumor spheroids was designed to identify active combinations of RAS pathway inhibitors and targeted small molecules. Complex spheroids include a stromal component modeled by human endothelial cells (HUVEC) and fibroblasts modeled by human mesenchymal stem cells (MSCs). The concentration ranges selected for each drug and investigational agent were based upon clinically achievable concentrations if the clinical Cmax of the agent was known.
Compounds. The drugs and investigational agents: abemaciclib (NSC768073), cobimetinib (NSC768068), divarasib (GDC6063, NSC841802), docetaxel (NSC628503), GDC-1971 (RLY-1971, NSC841576), gemcitabine (NSC613327), inavolisib (NSC800729), ipatasertib (NSC767898), KB-0742 (NSC834161), MRTX-1133 (NSC836407), osimertinib (NSC779217), RMC-4630 (NSC839698), RMC-6236 (NSC851965), RMC-6291 (NSC852671), Ro-3306 (NSC812927), sapanisertib (NSC764658), SN-38 (NSC673596), staurosporine (NSC755774), SY5609 (NSC837396), and tovorafenib (DAY101, NSC766906), were obtained from the National Cancer Institute (NCI) Developmental Therapeutics Program Chemical Repository. The FDA-approved anticancer drug set is available from the NCI Developmental Therapeutics Program. […] The stock solutions were prepared in dimethyl sulfoxide (DMSO, Sigma-Aldrich, St. Louis, MO, cat. D2650) at 800-fold the tested concentration and stored at -70 degrees C prior to their use. All drugs and investigational agents were tested over a range starting from a high concentration at or near the clinical Cmax and decreasing in half-log increments. If the clinical Cmax for an agent had not been determined, the highest concentration tested was 10 microM.
Cell Culture. All cells were maintained in an incubator at 37 degrees C and 5% CO2 with 95% humidity. The PDC lines were cultured according to standard operating procedures established by the NCI PDMR. All PDCs were thawed and cultured in Matrigel-coated flasks prepared with a working solution of 1X Ham's F-12 nutrient mix, without supplementation (Invitrogen, Waltham, MA, cat. 11765054), 100 U/mL penicillin-streptomycin (Invitrogen, cat. 15140122), and 2.5% Matrigel (Corning Inc., Corning, NY, cat. 354248) for the first three passages. The 362531-283-R-J2-PDC and 782815-120-R-J1-PDC lines were cultured in 6C/Colon 1B media, which includes advanced DMEM/F-12 (Thermo Fisher Scientific, cat. 12634028), 10 mM HEPES (Thermo Fisher Scientific, cat. 15630080), 1X GlutaMAX supplement (Thermo Fisher Scientific, cat. 35050061), 0.1 mg/mL primocin (InvivoGen, San Diego, CA, cat. ant-pm-2), 10% defined fetal bovine serum, heat inactivated (HyClone Laboratories Inc., Logan, UT, cat. SH30070.03HI), 50% L-WRN conditioned media (ATCC, cat. CRL-3276), 1.25 mM N-Acetyl-L-cysteine (Sigma-Aldrich, cat. A9165), 10 mM nicotinamide (Sigma-Aldrich, cat. N0636), 1X B-27 supplement (Thermo Fisher Scientific, cat. 17504044), 1X N-2 supplement (Thermo Fisher Scientific, cat. 17502048), 50 ng/mL human EGF (Thermo Fisher Scientific, cat. PHG0311), and 10 microM Y-27632 dihydrochloride (Tocris Bioscience, cat. 1254). The K12877-001-R-J1-PDC line was cultured in 6I media, which includes all 6C/Colon 1B media plus 10 ng/mL human FGF-10 (PeproTech, cat. 100-26), 1 ng/mL human FGF-2 (PeproTech, cat. 100-18B), 1 µM prostaglandin E2 (Tocris Bioscience, cat. 2296), […] hydrocortisone (Sigma-Aldrich, cat. H4001), and […] bovine insulin (Sigma-Aldrich, cat. I6634). The K86415-001-R-J1-PDC line was cultured in 6D media, which includes all 6C/Colon 1B media components minus the L-WRN conditioned media. The 485176-168-R4-J1-PDC was cultured in PANC media, which includes all 6C/Colon 1B media plus 100 ng/mL human FGF-10 (PeproTech, cat. 100-26), 500 nM SB-431542 (Selleckchem, cat. S1067), and 10 nM gastrin (Tocris Bioscience, cat. 3006). […]

SMILES: CC(Nc1ccc2c(c1)OCCn1cc(N3C(=O)OCC3C(F)F)nc1-2)C(N)=O (configuration not stated) + CCn1c(-c2cccnc2C(C)OC)c2c3cc(ccc31)N1CCOC(CC(NC(=O)C(C(C)C)N(C)C(=O)C3(F)CCN(C(=O)C#CC(C)(C)N(C)C)CC3)C(=O)N3CCCC(N3)C(=O)OCC(C)(C)C2)C1
- pIC50 (second compound 0.000949 µM): 5.19
- pIC50 (second compound 0.003 µM): 5.18
- pIC50 (second compound 0.00949 µM): 5.22
- pIC50 (second compound 0.03 µM): 5.22
- pIC50 (second compound 0.0949 µM): 5.26
- pIC50 (second compound 0.3 µM): 5.36
- viability, T/C (second compound 0.000949 µM, first compound 0.0316 µM): 103%
- viability, T/C (second compound 0.000949 µM, first compound 0.1 µM): 94.3%
- viability, T/C (second compound 0.000949 µM, first compound 0.316 µM): 96.2%
- viability, T/C (second compound 0.000949 µM, first compound 1 µM): 87.2%
- viability, T/C (second compound 0.000949 µM, first compound 3.16 µM): 83.5%
- viability, T/C (second compound 0.000949 µM, first compound 10 µM): 30.4%
- viability, T/C (second compound 0.003 µM, first compound 0.0316 µM): 99.5%
- viability, T/C (second compound 0.003 µM, first compound 0.1 µM): 96.1%
- viability, T/C (second compound 0.003 µM, first compound 0.316 µM): 94.5%
- viability, T/C (second compound 0.003 µM, first compound 1 µM): 90.5%
- viability, T/C (second compound 0.003 µM, first compound 3.16 µM): 79.8%
- viability, T/C (second compound 0.003 µM, first compound 10 µM): 32.7%
- viability, T/C (second compound 0.00949 µM, first compound 0.0316 µM): 98.7%
- viability, T/C (second compound 0.00949 µM, first compound 0.1 µM): 97.1%
- viability, T/C (second compound 0.00949 µM, first compound 0.316 µM): 96.5%
- viability, T/C (second compound 0.00949 µM, first compound 1 µM): 92%
- viability, T/C (second compound 0.00949 µM, first compound 3.16 µM): 85.3%
- viability, T/C (second compound 0.00949 µM, first compound 10 µM): 21.6%
- viability, T/C (second compound 0.03 µM, first compound 0.0316 µM): 94.1%
- viability, T/C (second compound 0.03 µM, first compound 0.1 µM): 96.6%
- viability, T/C (second compound 0.03 µM, first compound 0.316 µM): 96.5%
- viability, T/C (second compound 0.03 µM, first compound 1 µM): 91.8%
- viability, T/C (second compound 0.03 µM, first compound 3.16 µM): 83.1%
- viability, T/C (second compound 0.03 µM, first compound 10 µM): 22.9%
- viability, T/C (second compound 0.0949 µM, first compound 0.0316 µM): 96.9%
- viability, T/C (second compound 0.0949 µM, first compound 0.1 µM): 98.1%
- viability, T/C (second compound 0.0949 µM, first compound 0.316 µM): 94.5%
- viability, T/C (second compound 0.0949 µM, first compound 1 µM): 91.1%
- viability, T/C (second compound 0.0949 µM, first compound 3.16 µM): 80.2%
- viability, T/C (second compound 0.0949 µM, first compound 10 µM): 17%
- viability, T/C (second compound 0.3 µM, first compound 0.0316 µM): 101%
- viability, T/C (second compound 0.3 µM, first compound 0.1 µM): 101%
- viability, T/C (second compound 0.3 µM, first compound 0.316 µM): 97.2%
- viability, T/C (second compound 0.3 µM, first compound 1 µM): 86%
- viability, T/C (second compound 0.3 µM, first compound 3.16 µM): 65.6%
- viability, T/C (second compound 0.3 µM, first compound 10 µM): 13.2%
